We go through 1 compound from PMC4972190, “In vitro activity of salinomycin and monensin derivatives against Trypanosoma brucei” (Parasites & Vectors, 2016).

The structures appear in SMILES notation. Converted amounts (≈) assume the structure as drawn.

Series [1] relates to human myeloid leukaemia HL-60 cells. As to the kind of experiment: Toxicity assay (resazurin, 72 h) on HL-60 cells. Format: cell-based. The procedure:
(§1) Bloodstream forms of T. brucei (clone 427-221a) and human myeloid leukaemia HL-60 cells were grown in Baltz medium and RPMI medium, respectively. Both culture media were supplemented with 16.7 % (v/v) heat-inactivated foetal calf serum. All cultures were maintained in a humidified atmosphere containing 5 % CO2 at 37 °C.
(§2) Cells were seeded in 96-well plates in a final volume of 200 μl of their respective culture medium containing 10-fold serial dilutions of ionophore derivatives (10^-4 to 10^-10 M) and 1 % DMSO. Wells containing medium and 1 % DMSO served as controls. The initial cell densities were 1 × 10^4/ml for T. brucei and 1 × 10^5/ml for HL-60 cells. After 24 h incubation at 37 °C in a humidified atmosphere containing 5 % CO2, 20 μl of a 0.44 mM resazurin solution prepared in PBS was added and the cells were incubated for a further 48 h so that the total incubation time was 72 h. Thereafter, the plates were read on a microplate reader using a test wavelength of 570 nm and a reference wavelength of 630 nm. The 50 % growth inhibition (GI50) value, i.e. the concentration of a compound necessary to reduce the growth rate of cells by 50 % compared to the control was determined by linear interpolation according to the method described in [22]. The minimum inhibitory concentration (MIC) values, i.e. the concentration of the drug at which all trypanosome and human cells were killed, was determined microscopically. Each compound was independently tested three times.
On the technique in general: The colour change of resazurin is a common sign of viable cells or microbes.

Series [2] deals with human peripheral blood mononuclear cells. On the set-up: method as in PMID 23517602, PMID 25769976. The following applies: read-out: 50 % effective concentration (cytotoxicity); cited from earlier work.
The test system of series [3] is bloodstream forms of T. brucei. As to the kind of experiment: Measurement of changes in cell volume by light scattering. Format: cell-based, Trypanosoma brucei. The following applies: 100 μM; 5 × 10^7 cells/ml; measured every 15 min; decrease in absorbance = increase in cell volume. The protocol: Change in cell volume was determined by light scattering as previously described. In brief, bloodstream forms of T. brucei were seeded at a density of 5 × 10^7 cells/ml in 96-well plates in a final volume of 200 μl culture medium containing 100 μM of salinomycin or the salonimycin derivatives SAL-E7 or SAL-AM2 and 1 % DMSO. Absorbance of the cultures was measured at 490 nm every 15 min. A decrease in absorbance corresponded to an increase in cell volume. The experiment was repeated three times.
Change in cell volume can be measured by light scattering at 450–550 nm whereby a decrease in absorbance indicates swelling of cells. In order to be able to record measurable absorbance changes, a high cell density is required. […] However, the derivatives caused a slightly faster swelling of the cells than salinomyicn. […] During further incubation, trypanosomes increased their cell volume but cell swelling was much slower and much less. […] However, it seems that the transport efficiency determines the trypanocidal potency of salinomycin derivatives.
Fig. 3 Effect of salinomycin derivatives on the cell volume of bloodstream forms of T. brucei. […] Every 15 min, the absorbance at 490 nm was measured. […] Note that a decrease in absorbance corresponds to an increase in cell volume

The test system of series [4] is Bloodstream forms of T. brucei (clone 427-221a). On the set-up: method as in PMID 23517602. The following applies: human cells vs bloodstream forms of T. brucei; cited from earlier work.
Series [5] has the same test system. As to the kind of experiment: Toxicity assay (resazurin, 72 h) on bloodstream forms of T. brucei. Format: cell-based, Trypanosoma brucei. The protocol: as §1, §2
The next series relates to human nasal mucosa cells. On the set-up: method as in PMID 23517602, PMID 25769976. The following applies: read-out: 50 % effective concentration (cytotoxicity); cited from earlier work.

As usually defined, the MIC is the least concentration at which growth counts as inhibited. The GI50 is the concentration giving 50% growth inhibition. The low end stands for greater sensitivity of the cells, the high end for lower sensitivity of the cells. In the case of `CC[C@@H](C(=O)[C@@H](C)[C@@H](O)[C@H](C)[C@@H]1O[C@@H]([C@@H](CC)C(=O)O)CC[C@@H]1C)[C@H]1O[C@]2(C=C[C@@H](O)[C@]3(CC[C@@](C)([C@H]4CC[C@](O)(CC)[C@H](C)O4)O3)O2)[C@H](C)C[C@@H]1C` [Salinomycin, salinomycin], the MIC in series [1] (HL-60 cells, 72 h, determined microscopically, mean of three experiments) turned out to be 1 µM (≈ 0.751 µg/mL); in series [5] (Trypanosoma brucei, 72 h, T. brucei bloodstream forms, concentration at which all cells were killed, determined microscopically, mean of three experiments) it was 1 µM (≈ 0.751 µg/mL). Moreover, the GI50 in series [1] (Homo sapiens, HL-60, 72 h) came out at 440 ± 210 nM; in series [5] (Trypanosoma brucei, 72 h) it was 180 ± 60 nM. Moreover, the values for the EC50 (in series [2]; in the series with human nasal mucosa cells) were 30 µM and 11 µM, respectively. Further, the “Effect on cell volume (absorbance at 490 nm)” value in series [3] is given as “continued to swell until the end of experiment”. Also, the “selectivity (cytotoxic/trypanocidal ratio)” value in series [4] is listed as less than 100. Moreover, in series [5] (GI50(HL-60)/GI50(T. brucei)), the “Selectivity GI50 ratio” value is given as 2.4. In addition, the “Selectivity MIC ratio” value in series [5] (MIC(HL-60)/MIC(T. brucei)) was found to be 1.
